Entries after “also recorded” stand apart in the source; their conditions may differ.
Target: T1, GSDMD pores (Homo sapiens, UniProt P57764)
T1 construct: His-SUMO (N, cleaved yes); made in house; host or cells: E. coli BL21
T1 sequence (P57764 1-275 limits assumed): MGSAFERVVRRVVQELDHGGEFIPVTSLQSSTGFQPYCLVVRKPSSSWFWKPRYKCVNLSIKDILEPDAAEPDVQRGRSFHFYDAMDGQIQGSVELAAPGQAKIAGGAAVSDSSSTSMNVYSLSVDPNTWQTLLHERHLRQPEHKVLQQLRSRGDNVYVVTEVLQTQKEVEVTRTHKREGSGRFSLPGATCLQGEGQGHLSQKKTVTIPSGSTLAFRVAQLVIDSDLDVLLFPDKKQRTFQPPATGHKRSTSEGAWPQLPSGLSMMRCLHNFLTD
Test: Free-standing planar lipid bilayer electrophysiology of reconstituted GSDMD pores
Assay type: biochemical
Conditions: for time to observe GSDMD protein-membrane interaction, in words: lipid in bilayer compared to baseline or PIP2 bilayer; for single pore activity / pore dynamics profile: lipid in POPE/POPC bilayer
Description: Protein Purification. Plasmid encoding the full length human GSDMD with a N-terminal His-SUMO tag was transformed into E. coli BL21 strain. The cultures were grown at 37° C. until OD600 0.8, and protein expression was induced with 0.2 mM isopropyl β-D-1-thiogalactopyranoside (IPTG) overnight at 20° C. The cells were harvested by centrifugation and the pellet was resuspended in 20 mM Tris buffer, pH 7.5, 50 mM NaCl, 5 mM imidazole, 20 mM MgCl2, 10 mM KCl, 0.5 mM TCEP, 0.1 mM protease inhibitor, and DNase I. After resuspension, cells were disrupted by high-pressure and centrifuged at 30,000 g at 4° C. for 1 hour. The supernatant was incubated for 2 hours at room temperature with pre-equilibrated Ni-NTA affinity resin (Thermo Scientific) and then passed through a column for gravity flow purification. The column was washed with 20 column volumes of resuspension buffer, and the fusion protein was eluted with three column volumes of the same buffer with 250 mM imidazole. SUMO-tag cleavage was achieved by addition of ULP1 protease to the solution and subsequent dialysis overnight at 4° C. against 20 mM Tris buffer, pH 7.5, 50 mM NaCl, 0.5 mM TCEP. GSDMD was eluted from a second round of purification through pre-equilibrated Ni-NTA affinity resin. The protein was further purified by HI-TRAP® Q ion-exchange resin and a SUPERDEX® 75 gel filtration column (GE Healthcare) pre-equilibrated with 20 mM Tris buffer, pH 7.5, 50 mM NaCl, 0.5 mM TCEP. The purified protein was concentrated to 20 mg/ml and frozen at −80° C.
Free-Standing Lipid Bilayer Formation and Electrophysiology. For the lipid bilayer, a bilayer chamber with a polystyrene cuvette was used. In addition, the folding method, which is based on Langmuir-Blodgett film formation (Kroemer et al. (2009) Cell Death Differ. 16:3-11; Weavers et al. (2016) Cell 165:1658-1671) was employed. Monolayers that were spread in the air-water interface were faced at the chamber hole (Bergsbaken & Fink (2009) Nat. Rev. Microbiol. 7:99-109; Mulvihill et al. (2018) EMBO J. 37 (14): e98321). In brief, a shallow trough made of polystyrene was filled with recording solution, and the surface was separated into two parts by one of the cuvette walls. Bilayers were formed by monolayers of 1:3 1-palmitoyl-2-oleoylphosphatidylethanolamine (POPE)/1-palmitoyl-2-oleoylphosphatidylcholine (POPC) (Avanti-lipids) in pentane; where appropriate, phosphoinositides of the indicated headgroup were introduced with di-oleoyl (18:1) fatty acid chains at 10% relative concentration. A small amount of phospholipid, dispersed in pentane solution, was dropped on one of the water surfaces and as pentane evaporated, the lipid molecules remained at the air-water interface. The movements of the lipid molecules became less vigorous, and eventually the lipid molecules packed together to form a monolayer. For the formation of the planar lipid bilayer by the folding method, a monolayer was formed at the air-water interface in each compartment. Upon raising the recording solution level by adding more solution, the monolayer ran up on the cuvette surface and passed through the hole, where the two monolayers from both sides encountered each other and formed a bilayer. The membrane formed by this method has been referred to as a “solvent-free” membrane. The advantage of this method over other methods, like the painting method, is the capacity to form an asymmetrical membrane in which the lipid composition of either leaflet is arbitrarily defined (Kayagaki et al. (2015) Nature 526: 666-671). Once formed, the membrane retains this asymmetry for a long time because the flip-flop or exchange of the lipid molecules between both leaflets of the membrane is very slow.
For incorporation of the GSDMD into the lipid bilayer, 2 μM of the purified GSDMD protein was added to the cis side chamber along with 2 μM of caspase 1. The specific membrane capacitance of the membrane formed by the folding method was 0.6-0.8 μF/cm^2. […]

[1] = lipid at 10% in POPE/POPC bilayer
[2] = lipid at 10% in POPE/POPC bilayer vs baseline

Substance	mean current of pores [1] [pA]	time to observe protein-membrane interaction [1] [min]	dwell time (open duration) of pores [2]	effect on open probability of pores [2]	increase in open/close events [2] [fold]	time to observe GSDMD protein-membrane interaction, in words	single pore activity / pore dynamics profile	time to observe GSDMD protein-membrane interaction, in words (listed as PI(3,4,5)P3 (PIP3))
phosphatidylinositol 4,5-bisphosphate [PIP2]	20	2.4 ± 0.5	similarly distributed; also recorded: similar	did not affect the open probability	57	significantly shortened		
cardiolipin [cardiolipin (CL)]							supported a pore dynamics profile similar to that of PIP2	
phosphatidylinositol triphosphate [PIP3]	20.5		significantly shorter-lived; also recorded: apparently short dwell time			remained as rapid as with PIP2	kept GSDMD pores predominantly in the open state	significantly shortened
diacylglycerol [DAG]							no single pore activity was detected	

From patent publication US20240262878A1, “PHOTOACTIVATABLE GASDERMIN PROTEINS” (THE BOARD OF TRUSTEES OF THE UNIVERSITY OF ILLINOIS, priority 2021, published 2024)
